This note sets out measurements from patent US9353088B2, “Crystalline pharmaceutical and methods of preparation and use thereof” (SARcode Bioscience Inc., priority 2009, dated 2016).

The structures appear in SMILES notation.

The subject of this series is tester strains. The experiment in a line: In vitro Ames bacterial reverse mutation assay. In kind it is cell-based. To be noted: presence or absence of microsomal (S9) enzymes. The source says: Therefore, the compound of Formula I was judged to be not mutagenic.

`CS(=O)(=O)c1cccc(C[C@H](NC(=O)c2c(Cl)cc3c(c2Cl)CCN(C(=O)c2ccc4ccoc4c2)C3)C(=O)O)c1` [Compound of Formula I]: the mutagenicity result is given as “not mutagenic”.
